How the values were obtained:
Test in all cases: relative viability (nuclei count vs DMSO), 5 days (fraction); higher = more cells survive
[1] = compound: CC1=CC(=CC=C1)NC2=NC(=CS2)C3=CC=NC=C3 + CC(=O)c1c(C)c2cnc(Nc3ccc(N4CCNCC4)cn3)nc2n(C2CCCC2)c1=O [Palbociclib] (partner 0.5 µM)
Procedure, shortened: (§1)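 A single step with final 0.05% Triton X-100, 1% formaldehyde and 1 ug/ml Hoechst fixed the cells and stained nuclei 5 days after treatment. Lung cancer cell lines in 1536-well plates had been treated by pin tool the day after seeding with one drug alone or a fixed anchor-drug dose plus five library-drug doses (not always all listed) in √10 steps, and nuclei were counted on 4× images. Relative viability is the ratio of nuclei in treated wells to nuclei in vehicle wells, taken as the median of duplicate plates.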

Masitinib + Crizotinib = compound: Cc1ccc(NC(=O)c2ccc(CN3CCN(C)CC3)cc2)cc1Nc1nc(-c2cccnc2)cs1 [Masitinib] + C[C@@H](Oc1cc(-c2cnn(C3CCNCC3)c2)cnc1N)c1c(Cl)ccc(F)c1Cl [Crizotinib] (partner 1 µM)
Procedure, shortened: as §1

[2] = compound: CC1=CC(=CC=C1)NC2=NC(=CS2)C3=CC=NC=C3 + CC1(C)CCC(c2ccc(Cl)cc2)=C(CN2CCN(c3ccc(C(=O)NS(=O)(=O)c4ccc(N[C@H](CCN5CCOCC5)CSc5ccccc5)c(S(=O)(=O)C(F)(F)F)c4)cc3)CC2)C1 [Navitoclax] (partner 0.5 µM)
Procedure, shortened: as §1

Masitinib + Linsitinib = compound: Cc1ccc(NC(=O)c2ccc(CN3CCN(C)CC3)cc2)cc1Nc1nc(-c2cccnc2)cs1 [Masitinib] + C[C@]1(O)C[C@@H](c2nc(-c3ccc4ccc(-c5ccccc5)nc4c3)c3c(N)nccn32)C1 [Linsitinib] (partner 1 µM)
Procedure, shortened: as §1

Row | Cell Line | relative viability ([1]; first compound 0.08 µM) | relative viability ([1]; first compound 0.253 µM) | relative viability ([1]; first compound 0.8 µM) | relative viability ([1]; first compound 2.53 µM) | relative viability ([1]; first compound 8 µM) | relative viability (Masitinib + Crizotinib; first compound 0.01 µM) | relative viability (Masitinib + Crizotinib; first compound 0.03162 µM) | relative viability (Masitinib + Crizotinib; first compound 0.1 µM) | relative viability (Masitinib + Crizotinib; first compound 0.3162 µM) | relative viability (Masitinib + Crizotinib; first compound 1 µM) | relative viability ([2]; first compound 0.08 µM) | relative viability ([2]; first compound 0.253 µM) | relative viability ([2]; first compound 0.8 µM) | relative viability ([2]; first compound 2.53 µM) | relative viability ([2]; first compound 8 µM) | relative viability (Masitinib + Linsitinib; first compound 0.01 µM) | relative viability (Masitinib + Linsitinib; first compound 0.03162 µM) | relative viability (Masitinib + Linsitinib; first compound 0.1 µM) | relative viability (Masitinib + Linsitinib; first compound 0.3162 µM) | relative viability (Masitinib + Linsitinib; first compound 1 µM)
1 | 201T | 0.401 | 0.319 | 0.359 | 0.348 | 0.336 | 0.836 | 1.03 | 0.99 | 1.02 | 0.935 | 1.2 | 1.22 | 1.21 | 1.26 | 0.993 | 0.881 | 0.977 | 1.01 | 0.851 | 1.01
2 | A549 | – | – | – | – | – | 0.666 | 0.805 | 0.823 | 0.686 | 0.722 | 1.05 | 1.23 | 1.19 | 1.16 | 0.866 | 0.576 | 0.602 | 0.667 | 0.681 | 0.545
3 | A-427 | 0.473 | 0.531 | 0.485 | 0.538 | 0.5 | – | 0.889 | – | 0.845 | 0.783 | 0.955 | 0.962 | 0.899 | – | 0.875 | – | 1.06 | – | 1.18 | 1.07
4 | ABC-1 | 0.627 | – | 0.944 | 0.795 | 0.473 | 0.965 | 1.17 | 1.15 | 1.12 | 1.18 | – | – | – | – | – | 0.78 | 0.78 | 0.982 | 0.871 | 0.622
5 | BEN | 0.457 | 0.521 | 0.424 | 0.489 | 0.482 | 0.888 | 0.834 | 1.09 | 1.18 | 0.765 | 0.0747 | 0.0619 | 0.0712 | 0.0922 | 0.084 | 1.04 | 0.858 | 1.19 | 1.23 | 0.939
6 | CAL-12T | 0.402 | 0.414 | 0.391 | 0.329 | 0.586 | 0.625 | 0.472 | 0.623 | 0.66 | 0.464 | 1.19 | 1.06 | 1.16 | 1.05 | 1.24 | 0.769 | 0.751 | 0.94 | 0.904 | 0.805
7 | COR-L23 | 0.256 | 0.251 | 0.232 | 0.279 | 0.303 | 0.645 | 0.607 | 0.768 | 0.59 | 0.629 | 0.982 | 0.804 | 0.722 | 0.965 | 0.973 | 1.11 | 0.923 | 1 | 1.07 | 1.05
8 | COR-L 105 | 0.353 | 0.45 | 0.391 | 0.421 | 0.33 | 0.657 | 0.803 | 0.876 | 0.686 | 0.717 | 0.573 | 0.779 | 0.634 | 0.809 | 0.456 | 0.993 | 0.973 | 0.921 | 0.753 | 0.881
9 | Calu-6 | – | – | – | – | – | 0.781 | 0.808 | 0.886 | 0.843 | 0.73 | 0.748 | 0.685 | 0.763 | 0.773 | 0.711 | 0.815 | 0.916 | 1.06 | 0.997 | 0.902
10 | ChaGo-K-1 | 0.9 | 0.961 | 0.946 | 0.943 | 0.859 | 1.33 | 1.12 | 1.51 | 1.05 | 1.12 | 0.9 | 0.806 | 1.06 | 0.411 | 0.849 | – | – | – | – | –
11 | EBC-1 | – | – | – | – | – | 0.191 | 0.205 | 0.195 | 0.162 | 0.212 | 0.376 | 0.381 | 0.516 | 0.391 | 0.227 | 0.685 | 0.753 | 1.21 | 0.857 | 0.588
12 | EKVX | 0.36 | 0.384 | – | 0.39 | 0.268 | – | 0.789 | 0.79 | 0.825 | 0.922 | 0.901 | 0.837 | 0.676 | 0.923 | 0.98 | – | 0.87 | 0.876 | 0.881 | 1.06
13 | EMC-BAC-2 | 0.495 | 0.496 | 0.526 | 0.504 | 0.454 | 0.655 | 0.648 | 0.845 | 0.705 | 0.82 | 1.06 | 1.22 | 1.1 | 1.15 | 0.963 | 0.757 | 0.796 | 0.867 | 0.903 | 0.814
14 | EPLC-272H | 0.309 | 0.315 | 0.372 | – | 0.332 | 0.881 | 0.81 | 0.803 | 0.842 | 0.871 | 1.02 | – | 0.871 | – | 0.979 | 1.08 | 1.26 | 1.19 | 1.18 | 1.01
15 | H3255 | 0.358 | 0.332 | 0.363 | 0.306 | 0.318 | – | 0.767 | 0.711 | 0.722 | 0.815 | 0.573 | 0.304 | 0.561 | 0.533 | 0.496 | 0.679 | 0.844 | 0.837 | 0.977 | 0.936
16 | HARA | 0.238 | 0.237 | 0.196 | 0.222 | 0.324 | 0.961 | 0.75 | 1.25 | 1.04 | 1.01 | 1.11 | 1.16 | 1.12 | 1.12 | 1.08 | 0.894 | 1.02 | 1.08 | 0.917 | 1.06
17 | HCC-15 | 0.74 | 0.641 | 0.631 | 0.562 | 0.653 | 0.745 | 0.826 | 0.798 | 1.04 | 0.976 | 0.698 | 0.661 | 0.65 | 0.615 | 0.507 | 0.8 | 0.826 | 0.941 | 0.863 | 0.952
18 | HCC-44 | 0.912 | 0.779 | 0.851 | 0.874 | 0.805 | 0.699 | 0.844 | 0.875 | 0.713 | 0.739 | 0.759 | 0.728 | 0.709 | 0.749 | 0.813 | 0.567 | 0.487 | 0.648 | 0.568 | 0.666
